Results as given in article PMC12645583 (British journal of haematology, 2025).

Experiments:
IRAK1 = IRAK1 (Homo sapiens, UniProt P51617); test: KINOMEscan kinase profiling, % inhibition at […]; format: binding
HCK = HCK (Homo sapiens, UniProt P08631); test: SelectScreen Z-Lyte enzymatic kinase assay at ATP Km app; format: biochemical
BTK = BTK (Homo sapiens, UniProt Q06187); test: as above; format: biochemical
Chain of BTK (Q06187 2-659): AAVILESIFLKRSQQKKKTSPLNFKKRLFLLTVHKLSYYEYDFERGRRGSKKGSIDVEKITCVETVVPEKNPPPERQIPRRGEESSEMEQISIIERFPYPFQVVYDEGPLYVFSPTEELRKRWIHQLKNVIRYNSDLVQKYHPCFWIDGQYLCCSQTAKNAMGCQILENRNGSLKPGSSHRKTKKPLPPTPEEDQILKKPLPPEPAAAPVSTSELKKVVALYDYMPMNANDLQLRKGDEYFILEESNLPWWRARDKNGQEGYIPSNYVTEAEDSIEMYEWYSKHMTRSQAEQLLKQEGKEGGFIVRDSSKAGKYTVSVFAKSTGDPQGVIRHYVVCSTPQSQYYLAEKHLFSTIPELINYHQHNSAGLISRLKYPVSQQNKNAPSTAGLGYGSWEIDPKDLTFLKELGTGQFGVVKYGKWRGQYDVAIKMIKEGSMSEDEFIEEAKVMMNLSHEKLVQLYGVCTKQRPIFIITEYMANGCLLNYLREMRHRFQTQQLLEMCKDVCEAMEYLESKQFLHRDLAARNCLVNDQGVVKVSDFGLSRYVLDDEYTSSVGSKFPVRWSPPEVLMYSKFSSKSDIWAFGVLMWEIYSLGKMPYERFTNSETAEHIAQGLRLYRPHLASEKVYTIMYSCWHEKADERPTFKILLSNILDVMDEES

Chain of HCK (P08631 2-526): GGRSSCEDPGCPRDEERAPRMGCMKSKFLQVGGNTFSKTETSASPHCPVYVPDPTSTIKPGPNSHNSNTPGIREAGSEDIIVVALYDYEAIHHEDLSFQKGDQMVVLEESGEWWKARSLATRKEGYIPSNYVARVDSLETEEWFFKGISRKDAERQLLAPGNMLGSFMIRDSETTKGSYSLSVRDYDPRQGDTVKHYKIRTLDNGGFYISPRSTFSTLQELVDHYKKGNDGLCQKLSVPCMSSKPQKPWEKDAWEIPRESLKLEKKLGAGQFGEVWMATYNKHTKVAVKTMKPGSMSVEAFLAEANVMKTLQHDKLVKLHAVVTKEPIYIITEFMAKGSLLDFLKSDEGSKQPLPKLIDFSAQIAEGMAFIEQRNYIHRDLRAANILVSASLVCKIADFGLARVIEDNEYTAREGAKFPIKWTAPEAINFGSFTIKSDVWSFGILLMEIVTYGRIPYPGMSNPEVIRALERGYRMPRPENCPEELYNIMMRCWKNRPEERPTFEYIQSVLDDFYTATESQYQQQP
Chain of IRAK1 (P51617 whole entry): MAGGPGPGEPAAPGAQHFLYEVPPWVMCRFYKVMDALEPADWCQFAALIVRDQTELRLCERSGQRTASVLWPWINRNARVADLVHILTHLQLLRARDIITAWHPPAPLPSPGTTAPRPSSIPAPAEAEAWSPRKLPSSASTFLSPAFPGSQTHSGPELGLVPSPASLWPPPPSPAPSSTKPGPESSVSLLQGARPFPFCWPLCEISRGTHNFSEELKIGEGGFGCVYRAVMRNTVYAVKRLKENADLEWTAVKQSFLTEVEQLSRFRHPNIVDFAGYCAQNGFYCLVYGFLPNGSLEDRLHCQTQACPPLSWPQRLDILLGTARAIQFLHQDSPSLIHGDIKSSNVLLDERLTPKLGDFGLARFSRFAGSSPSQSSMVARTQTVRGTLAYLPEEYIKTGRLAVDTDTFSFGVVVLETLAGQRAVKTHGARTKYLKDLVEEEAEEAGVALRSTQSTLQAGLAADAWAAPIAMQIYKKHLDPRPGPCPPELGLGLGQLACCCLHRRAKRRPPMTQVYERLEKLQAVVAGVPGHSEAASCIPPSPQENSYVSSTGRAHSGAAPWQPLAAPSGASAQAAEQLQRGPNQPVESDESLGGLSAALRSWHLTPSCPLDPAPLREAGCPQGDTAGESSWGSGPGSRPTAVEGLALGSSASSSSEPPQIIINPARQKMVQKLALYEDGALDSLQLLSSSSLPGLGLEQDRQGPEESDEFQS

In the case of C1=C/COCc2cc(ccc2OCCN2CCCC2)Nc2nccc(n2)-c2cccc(c2)COC/1 [pacritinib], the “%” value (IRAK1) is reported as 99.5%, the IC50 (HCK) is reported as 528 nM and the IC50 (BTK) is reported as 367 nM.
